The text below walks through data of patent US7256172B1, “Method of treatment and agents useful for same” (The University of Melbourne, priority 1998, dated 2007).

“And” between values parts separate entries of the source, which are not always exact repeats. Equal values may be shown once. No end group written: not given here.

As usually defined, the pEC50 is the negative decadic logarithm of the EC50, by convention in mol/L.

For assay [1], the system named is monkey small bronchi. From the text:
The experimental details are similar to those for the mouse isolated bronchi. Briefly, approximately 2 mm long rings of small bronchi were mounted on wire hooks. In each trace, half log concentrations are not depicted for clarity.

The subject of assay [2] is human distal colon. The procedure:
Human distal colon strips obtained at bowel resection were suspended at 1 g passive isometric force and contracted with substance P (30 μM) to maintain a steady level of active tension.

The subject of assay [3] is pig tracheal muscle strips. The conditions noted are these: contracted to approximately 30% maximal with carbachol. The method, then: Pig tracheal muscle strips of approximately 2 mm×2 mm in size and with mucosa were prepared by dissecting away overlying cartilage. Strips were suspended in Krebs solution under 1 g passive tension, and contracted to approximately 30% maximal contraction with carbachol (40 μM).

Assay [4] concerns human bronchial epithelium. The conditions noted are these: after amiloride. The procedure:
Human airways were obtained from discarded sections of lungs of patients undergoing lobectomy operations at the Royal Melbourne Hospital, Melbourne, Australia usually for lung cancer. The dissection and set up were as described above for the mouse trachea.
(§1) After an equilibration time of 30 min, compounds for testing and drugs to elucidate the mechanism of any changes in Isc to the test compounds were added to either side of the tracheal epithelium (ie to either bath). Compounds used for increasing Isc were PGE2, adenosine 5′-triphosphate (ATP), uridine 5′-triphosphate (UTP) and the PAR1-, PAR2- and PAR4-activating peptides, SFLLRN (SEQ ID NO:1) and SLIGRL (SEQ ID NO:2) and GYPGQY (SEQ ID NO:6), respectively. These stimulants were added cumulatively with controls for any time-dependent tachyphylaxis.

For assay [5], the system named is anaesthetised rat. The method, then:
Male Sprague-Dawley rats (8 weeks) were anaesthetised (xylazine 10 mg/kg, ketamine 100 mg/kg and 50 mg/kg each 30 min thereafter, i.p.) and cannulae were placed in the trachea, carotid artery and jugular vein. Spontaneous breathing was stopped by an intravenous injection of pancuronium bromide (0.4 mg/kg and 0.2 mg/kg each 30 min thereafter) and rats were ventilated (tidal volume 8 ml/kg at 90 breaths/min, SAR-830 ventilator, CWE Inc., Ardmore, USA). Breath-to-breath measurement of airway resistance (RD and dynamic compliance (Cdyn) were calculated from flow and transpulmonary pressure recordings (PMS800, Mumed, London, UK). Flow was measured over the tracheal cannula (Fleisch pneumotachograph, Lausanne, Switzerland) and transpulmonary pressure was measured with a differential pressure transducer, one end being connected to the outlet of the tracheal cannula, the other to an air-filled cannula inserted in the oesophagus. A rectal probe was used to monitor body temperature. Serotonin (5-HT; 0.3 mg/kg i.v.) was administered as a bolus dose at 5 min intervals until reproducible changes in RL and Cdyn were obtained. Prior to each 5-HT challenge, lungs were hyperinflated once (by delivering twice the tidal volume) to prevent and reverse atelecasis. […]

Assay [6] relates to rat bronchioles. From the text:
The right and left main bronchi and their first order branches of specific pathogenfree (SPF) Balb/c mice (15–20 g; either sex), Hartley tricolour guinea-pigs (300–400 g; male) and Sprague-Dawley rats (200–350 g; either sex), all killed by either cervical dislocation or overdosed (i.p.) with sodium pentobarbitone, were cleared of surrounding connective tissue, nerves and blood vessels under a dissecting microscope and placed in cold, carbogenated (95% v/v O2,5% v/v CO2) Krebs solution (Kemp and Cocks, 1997). Human airway preparations (0.5–1 mm in external diameter) were dissected from lungs of cancer patients undergoing thoracotomy at The Royal Melbourne Hospital, Melbourne, Australia. The epithelium was removed from some bronchi either by mechanical abrasion of the luminal surface (guinea-pig) or by brief, gentle intraliminal flushing of the airways with Krebs containing 0.1% v/v Triton-X100 (mouse and rat). In each case, removal of the epithelium was verified histologically in 8 μm formalin-fixed, paraffin sections stained with haemotoxylin and eosin. Ring segments (approximately 2 mm long) of bronchi and bronchioles were mounted in Krebs (37° C.) on stainless steel wires (40 μm) in dual channel (5 ml) Mulvany-Halpern myographs (JP Trading, Aarhus, Denmark) to record changes in isometric force (Kemp and Cocks, 1997). After equilibration at a passive force between 0.2 g and 0.3 g, tissues were contracted to their maximum levels of active force (Fm.),) with acetylcholine (30 μM), thoroughly washed with Krebs and allowed to return to baseline. Various drugs or their vehicles were then added and 30 min later all tissues were contracted to approximately 40% Fmax with titrated concentrations of carbachol (10–500 nM). The L-type voltage-operated Ca^2+ channel inhibitor, nifedipine (0.3 μM) was added to all mouse and rat tissues after obtaining Fmax to control characteristic phasic contractile activity with carbachol.
All cumulative responses (relaxations and contractions) were normalised as percentages of the initial level of active force to carbachol. Results are presented as mean±s.e mean and pEC50 (sensitivity) values were calculated by fitting concentration-response curves to a four parameter logistic function (Kemp and Cocks, 1997) using Graphpad Prism (version 2.0). Statistical comparison of mean pEC50 and maximum response (Rmax) values were compared by two-tailed unpaired Student's t-tests or one way analysis of variance (ANOVA) with Tukey-Kramer's t-tests for multiple comparisons. P<0.05 was accepted as significant. Unless specified, all averaged data are from n>5 experiments.

For assay [7], the system named is mouse trachea.
Text: Mice were killed by a lethal overdose of sodium pentobarbitone and the tracheae rapidly excised. The trachea was opened longitudinally through the ventral cartilage rings to make a fiat sheet. Each sheet of trachea was mounted between two perspex chambers so that the mucosal (luminal) and submucosal and bathed with warmed, oxygenated Krebs' solution, independently on each side. Electrodes in the chambers allowed recordings of transepithelial potential difference using an amplifier. The tissue was voltage clamped at 0 mV by passing a current from the amplifier via another set of electrodes in the chambers. The amount of current required to maintain voltage at 0 mV is defined as the short circuit current (Isc) and is conventionally used as a measure of all ionic fluxes across the preparation.
as §1

Assay [8] has as its system mice challenged with bacterial lipopolysaccharide. The note with it: 2 mg/kg or 20 mg/kg intranasal before LPS.
Experimental: Mice were challenged with bacterial lipopolysaccharide (LPS; 10 μg/mouse) via intranasal administration under light halothane aneasthesia.
Three hours after receiving LPS, the mice were killed via an intraperitoneal injection of sodium pentabarbitone and the lungs were canulated and lavaged with 4×0.5 ml washes of phosphate buffered saline. The total number of cells retrieved by this procedure was determined with a haemocytometer. Differential counts of individual cell types were performed on cytospin preparations of the lavage fluid, stained with the conventional May-Grunwald/Giemsa blood stain. The total number of neutrophils in each sample was then calculated from the proportion of neutrophils in the cytospin preparations, as a proportion of the total number of cells retrieved.

With SFLLRN [SFLLRN—NH2], the “effect on monkey small bronchi” value in assay [1] is recorded as “smooth muscle relaxing effects”. Besides, the “response of human distal colon” value in assay [2] was “relaxed in an apparently apaminin sensitive manner”. The “relaxation of pig tracheal strip” value in assay [3] was “slow onset, near maximal relaxation of the tissue comparable in extent to that induced by isoprenaline”. For the same substance, the “change in Isc” value in assay [4] is recorded as “increases in Ise”.

SLIGRL-NH2 [SLIGRL—NH2]: in assay [5] (30 sec aerosol of 0.1 mg/ml solution), the “inhibition of 5-HT-induced changes in airway resistance (RL) and dynamic compliance (Cdyn)” value is on record as 50–70%. For the same substance, in assay [5] (aerosol of 1 mg/ml), the “duration of inhibition of bronchoconstriction to 5-HT” value is “at least 45 min” and the “inhibition of bronchoconstriction to 5-HT” value was “complete inhibition”. For the same substance, in assay [6], the Rmax is recorded as 67±5%; the negative logarithm of the EC50 (pEC50) was 5.1±0.1 and 5.1±0.01. The “increase in Isc in presence of indomethacin” value in assay [7] (cyclooxygenase inhibitor indomethacin) is reported as “unaffected”. For the same substance, the “change in Isc” value in assay [7] (luminally applied) was “rapid initial rise in Isc usually followed by some degree of recovery until a steady plateau was reached”. Besides, in assay [8], the “effect on LPS-induced neutrophil infiltration into the lungs” value is “dose-dependent inhibition of the increase of neutrophil infiltration into the lungs”.
